# Target: MALT1 (Homo sapiens (Human), UniProt Q9UDY8)
# Assay: MALT1 enzymatic activity inhibition (fluorescence, Ac-LRSR-AMC substrate)
# Type: biochemical
# Conditions: recombinant MALT1 1.5 ng/μl, Ac-LRSR-AMC 1 μM
# Experimental: Compound activity was determined using recombinant MALT1 protein (Creative Biomart, Cat #MALT1-28H) and Ac-LRSR-AMC Substrate in an in vitro enzymatic reaction. The enzymatic assay used to determine activity was a Fluorescence assay using a Microplate Reader ClarioStar Plus. The enzymatic reaction was carried out in 1× Assay Buffer (50 mM HEPES pH 7.2-7.4, 100 mM NaCl, 900 mM Sodium citrate, 10 mM DTT). The compounds were dispensed on a 384-well Diamond Well Plate (Axygen, Cat #P-384-120SQ-C—S) using the Biomek FX liquid handling system at 100× solutions of compounds in DMSO. 2.5×MALT1 mix (final concentration 1.5 ng/μl of MALT1) was prepared in 1× Assay Buffer and 8 μl of mixture per well were added into 384w white Reaction Plates with NBS (Corning, Cat #4513). 8 μl of 1× Assay Buffer were used for negative control. Plates were centrifuged for 1 min at 200 g. Next, the compounds were added to Reaction plates using Biomek station via following steps: 1 μl of 100× compounds (in DMSO) was mixed thoroughly with 19 μl of 1× Assay Buffer, then 4 μl of this mixture were added to Reaction plates with 8 μl of MALT1 mix. Plates were centrifuged for 1 min at 200 g and incubated for 10 minutes at rt. Next, 2.5× Ac-LRSR-AMC mix (final concentration 1 μM of Ac-LRSR-AMC) was prepared in 1× Assay Buffer and 8 μl of mixture per well were added to Reaction Plates using Biomek station. Plates were centrifuged for 1 min at 200 g, then the fluorescence was measured immediately using Microplate Reader. Plates were incubated for 30 minutes at 37° C., then for 30 minutes at rt. The fluorescence was measured after the whole incubation using Microplate Reader. The reaction signal was calculated as the subtraction of the first data set values from the second. The % inhibition was then used to calculate the IC50 values. The results of this assay are shown in the Table A. The values of EC50 shown as a letters A-E, where: A≤0.2 μM; 0.2 μM<B≤0.5 μM; 0.5 μM<C≤1 μM; 1<D≤5 μM; E >5.
# Sequence of MALT1 (Q9UDY8 whole entry): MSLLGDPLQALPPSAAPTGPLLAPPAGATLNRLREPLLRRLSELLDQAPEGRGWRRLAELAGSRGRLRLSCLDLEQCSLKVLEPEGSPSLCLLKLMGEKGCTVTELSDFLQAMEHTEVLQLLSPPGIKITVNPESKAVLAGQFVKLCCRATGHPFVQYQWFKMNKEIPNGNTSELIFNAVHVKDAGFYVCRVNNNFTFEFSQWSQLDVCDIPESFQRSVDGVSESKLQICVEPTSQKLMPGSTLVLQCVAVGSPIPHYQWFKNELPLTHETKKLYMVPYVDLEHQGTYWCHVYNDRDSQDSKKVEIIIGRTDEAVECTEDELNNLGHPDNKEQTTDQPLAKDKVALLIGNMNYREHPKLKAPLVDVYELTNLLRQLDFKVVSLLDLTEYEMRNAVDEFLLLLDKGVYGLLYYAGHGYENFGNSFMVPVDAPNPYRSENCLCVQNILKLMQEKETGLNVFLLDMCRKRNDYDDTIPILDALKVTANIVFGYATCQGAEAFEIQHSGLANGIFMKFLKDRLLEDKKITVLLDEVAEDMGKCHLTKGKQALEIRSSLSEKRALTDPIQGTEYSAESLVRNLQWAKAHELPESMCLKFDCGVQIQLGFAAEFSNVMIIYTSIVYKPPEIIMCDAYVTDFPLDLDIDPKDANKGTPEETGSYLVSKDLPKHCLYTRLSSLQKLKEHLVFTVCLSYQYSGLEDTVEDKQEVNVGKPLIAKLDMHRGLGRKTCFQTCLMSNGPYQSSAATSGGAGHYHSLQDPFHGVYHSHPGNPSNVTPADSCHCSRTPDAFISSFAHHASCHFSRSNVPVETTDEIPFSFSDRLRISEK
row,Compound,EC50 [µM]
1,"O=C(CCOCCOCCN1CCN(c2ccc3c(c2)CN(C2CCC(=O)NC2=O)C3=O)CC1)NCCOc1ncc(Cl)cc1NC(=O)Nc1cnc2ccnn2c1C1CCOC1 (stereo not drawn) [Compound 40, N-[2-[[5-chloro-3-[(7-tetrahydrofuran-3-ylpyrazolo[1,5-a]pyrimidin-6-yl)carbamoylamino]-2-pyridyl]oxy]ethyl]-3-[2-[2-[4-[2-(2,6-dioxo-3-piperidyl)-1-oxo-isoindolin-5-yl]piperazin-1-yl]ethoxy]ethoxy]propanamide]",0.5 to 1
2,"O=C(CCOCCOCCN1CCN(c2ccc3c(c2)CN(C2CCC(=O)NC2=O)C3=O)CC1)NCCOc1ncc(Cl)cc1NC(=O)Nc1cnc2ccnn2c1C1CCOCC1 (stereo not drawn) [Compound 41, N-[2-[[5-chloro-3-[(7-tetrahydropyran-4-ylpyrazolo[1,5-a]pyrimidin-6-yl)carbamoylamino]-2-pyridyl]oxy]ethyl]-3-[2-[2-[4-[2-(2,6-dioxo-3-piperidyl)-1-oxo-isoindolin-5-yl]piperazin-1-yl]ethoxy]ethoxy]propanamide]",0.5 to 1
3,"O=C(CCOCCN1CCN(c2ccc3c(c2)CN(C2CCC(=O)NC2=O)C3=O)CC1)NCCOc1ncc(Cl)cc1NC(=O)Nc1cnc2ccnn2c1C1CCOCC1 (stereo not drawn) [Compound 42, N-[2-[[5-chloro-3-[(7-tetrahydropyran-4-ylpyrazolo[1,5-a]pyrimidin-6-yl)carbamoylamino]-2-pyridyl]oxy]ethyl]-3-[2-[4-[2-(2,6-dioxo-3-piperidyl)-1-oxo-isoindolin-5-yl]piperazin-1-yl]ethoxy]propanamide]",0.5 to 1
4,O=C(CCOCCN1CCN(c2ccc3c(c2)CN(C2CCC(=O)NC2=O)C3=O)CC1)NCCOc1ncc(Cl)cc1NC(=O)Nc1cnc2ccnn2c1C1CCCCC1 (stereo not drawn) [Compound 44],1 to 5
5,"O=C(CCOCCN1CCN(c2ccc3c(c2)CN(C2CCC(=O)NC2=O)C3=O)CC1)NCCNC(=O)C1CCCN1C(=O)Nc1cnc2ccnn2c1C1CCCC1 (stereo not drawn) [Compound 45, N1-(7-cyclopentylpyrazolo[1,5-a]pyrimidin-6-yl)-N2-[2-[3-[2-[4-[2-(2,6-dioxo-3-piperidyl)-1-oxo-isoindolin-5-yl]piperazin-1-yl]ethoxy]propanoylamino]ethyl]pyrrolidine-1,2-dicarboxamide]",> 5
6,"O=C(CCOCCOCCN1CCN(c2ccc3c(c2)CN(C2CCC(=O)NC2=O)C3=O)CC1)NCCNC(=O)[C@@H]1C[C@@H](O)CN1C(=O)Nc1cnc2ccnn2c1C1CCCC1 (stereo partly drawn) [Compound 47, (2S,4R)-N1-(7-cyclopentylpyrazolo[1,5-a]pyrimidin-6-yl)-N2-[2-[3-[2-[2-[4-[2-(2,6-dioxo-3-piperidyl)-1-oxo-isoindolin-5-yl]piperazin-1-yl]ethoxy]ethoxy]propanoylamino]ethyl]-4-hydroxy-pyrrolidine-1,2-dicarboxamide]",> 5
7,"O=C(CCOCCOCCN1CCN(c2ccc3c(c2)CN(C2CCC(=O)NC2=O)C3=O)CC1)NCCOc1ccc(Cl)cc1NC(=O)Nc1cnc2ccnn2c1C1CCCC1 (stereo not drawn) [Compound 49, N-[2-[4-chloro-2-[(7-cyclopentylpyrazolo[1,5-a]pyrimidin-6-yl)carbamoylamino]phenoxy]ethyl]-3-[2-[2-[4-[2-(2,6-dioxo-3-piperidyl)-1-oxo-isoindolin-5-yl]piperazin-1-yl]ethoxy]ethoxy]propanamide]",1 to 5
8,"O=C(CCOCCN1CCN(c2ccc3c(c2)CN(C2CCC(=O)NC2=O)C3=O)CC1)NCCOc1ncc(Cl)cc1NC(=O)Nc1cn2ccnc2nc1C1CCCCC1 (stereo not drawn) [Compound 50, N-[2-[[5-chloro-3-[(7-cyclohexylimidazo[1,2-a]pyrimidin-6-yl)carbamoylamino]-2-pyridyl]oxy]ethyl]-3-[2-[4-[2-(2,6-dioxo-3-piperidyl)-1-oxo-isoindolin-5-yl]piperazin-1-yl]ethoxy]propanamide]",1 to 5
9,"Cc1cc(NC(=O)Nc2cnc3ccnn3c2C2CCCO2)cnc1-c1noc(CCC(=O)N2CCN(c3ccc4c(c3)CN(C3CCC(=O)NC3=O)C4=O)CC2)n1 (stereo not drawn) [Compound 60, 1-[6-[5-[3-[4-[2-(2,6-dioxo-3-piperidyl)-1-oxo-isoindolin-5-yl]piperazin-1-yl]-3-oxo-propyl]-1,2,4-oxadiazol-3-yl]-5-methyl-3-pyridyl]-3-(7-tetrahydrofuran-2-ylpyrazolo[1,5-a]pyrimidin-6-yl)urea]",≤ 0.2

# Next, values leading:
row,EC50 [µM],Compound
1,0.5 to 1,"O=C(CCOCCN1CCN(c2ccc3c(c2)CN(C2CCC(=O)NC2=O)C3=O)CC1)NCCOc1ncc(Cl)cc1NC(=O)Nc1cnc2ccnn2c1C1CCOC1 (stereo not drawn) [Compound 39, N-[2-[[5-chloro-3-[(7-tetrahydrofuran-3-ylpyrazolo[1,5-a]pyrimidin-6-yl)carbamoylamino]-2-pyridyl]oxy]ethyl]-3-[2-[4-[2-(2,6-dioxo-3-piperidyl)-1-oxo-isoindolin-5-yl]piperazin-1-yl]ethoxy]propanamide]"
2,1 to 5,"O=C(CCOCCN1CCN(c2ccc3c(c2)CN(C2CCC(=O)NC2=O)C3=O)CC1)NCCOc1ccc(Cl)cc1NC(=O)Nc1cnc2ccnn2c1C1CCCC1 (stereo not drawn) [Compound 43, N-[2-[4-chloro-2-[(7-cyclopentylpyrazolo[1,5-a]pyrimidin-6-yl)carbamoylamino]phenoxy]ethyl]-3-[2-[4-[2-(2,6-dioxo-3-piperidyl)-1-oxo-isoindolin-5-yl]piperazin-1-yl]ethoxy]propanamide]"
3,> 5,"O=C(CCOCCN1CCN(c2ccc3c(c2)CN(C2CCC(=O)NC2=O)C3=O)CC1)NCCNC(=O)[C@@H]1C[C@@H](O)CN1C(=O)Nc1cnc2ccnn2c1C1CCCC1 (stereo partly drawn) [Compound 46, (2S,4R)-N1-(7-cyclopentylpyrazolo[1,5-a]pyrimidin-6-yl)-N2-[2-[3-[2-[4-[2-(2,6-dioxo-3-piperidyl)-1-oxo-isoindolin-5-yl]piperazin-1-yl]ethoxy]propanoylamino]ethyl]-4-hydroxy-pyrrolidine-1,2-dicarboxamide]"
4,> 5,"O=C(CCOCCOCCN1CCN(c2ccc3c(c2)CN(C2CCC(=O)NC2=O)C3=O)CC1)NCCNC(=O)C1CCCN1C(=O)Nc1cnc2ccnn2c1C1CCCC1 (stereo not drawn) [Compound 48, N1-(7-cyclopentylpyrazolo[1,5-a]pyrimidin-6-yl)-N2-[2-[3-[2-[2-[4-[2-(2,6-dioxo-3-piperidyl)-1-oxo-isoindolin-5-yl]piperazin-1-yl]ethoxy]ethoxy]propanoylamino]ethyl]pyrrolidine-1,2-dicarboxamide]"
5,> 5,"O=C(CCOCCN1CCN(c2ccc3c(c2)CN(C2CCC(=O)NC2=O)C3=O)CC1)NCCOc1ncc(Cl)cc1NC(=O)Nc1cnc2ncnn2c1C1CCCCC1 (stereo not drawn) [Compound 51, N-[2-[[5-chloro-3-[(7-cyclohexyl-[1,2,4]triazolo[1,5-a]pyrimidin-6-yl)carbamoylamino]-2-pyridyl]oxy]ethyl]-3-[2-[4-[2-(2,6-dioxo-3-piperidyl)-1-oxo-isoindolin-5-yl]piperazin-1-yl]ethoxy]propanamide]"
6,> 5,"O=C(CCOCCN1CCN(c2ccc3c(c2)CN(C2CCC(=O)NC2=O)C3=O)CC1)NCCOc1ncc(Cl)cc1NC(=O)Nc1cnc2nccn2c1C1CCCC1 (stereo not drawn) [Compound 52, N-[2-[[5-chloro-3-[(5-cyclopentylimidazo[1,2-a]pyrimidin-6-yl)carbamoylamino]-2-pyridyl]oxy]ethyl]-3-[2-[4-[2-(2,6-dioxo-3-piperidyl)-1-oxo-isoindolin-5-yl]piperazin-1-yl]ethoxy]propanamide]"
7,≤ 0.2,"Cc1cc(NC(=O)Nc2cnc3ccnn3c2C2CCCO2)cnc1-c1noc(CCCC(=O)N2CCN(c3ccc4c(c3)CN(C3CCC(=O)NC3=O)C4=O)CC2)n1 (stereo not drawn) [Compound 58, 1-[6-[5-[4-[4-[2-(2,6-dioxo-3-piperidyl)-1-oxo-isoindolin-5-yl]piperazin-1-yl]-4-oxo-butyl]-1,2,4-oxadiazol-3-yl]-5-methyl-3-pyridyl]-3-(7-tetrahydrofuran-2-ylpyrazolo[1,5-a]pyrimidin-6-yl)urea]"
8,≤ 0.2,"Cc1cc2ncc(NC(=O)Nc3cnc(-c4noc(CCCCC(=O)N5CCN(c6ccc7c(c6)CN(C6CCC(=O)NC6=O)C7=O)CC5)n4)c(C)c3)c(C3CCCC3)n2n1 (stereo not drawn) [Compound 59, 1-(7-cyclopentyl-2-methyl-pyrazolo[1,5-a]pyrimidin-6-yl)-3-[6-[5-[5-[4-[2-(2,6-dioxo-3-piperidyl)-1-oxo-isoindolin-5-yl]piperazin-1-yl]-5-oxo-pentyl]-1,2,4-oxadiazol-3-yl]-5-methyl-3-pyridyl]urea]"
9,≤ 0.2,"Cc1cc(NC(=O)Nc2cnc3ccnn3c2C2CCCC2)cnc1-c1noc(CCCCCC(=O)Nc2ccc3c(c2)CN(C2CCC(=O)NC2=O)C3=O)n1 (stereo not drawn) [Compound 61, 6-[3-[5-[(7-cyclopentylpyrazolo[1,5-a]pyrimidin-6-yl)carbamoylamino]-3-methyl-2-pyridyl]-1,2,4-oxadiazol-5-yl]-N-[2-(2,6-dioxo-3-piperidyl)-1-oxo-isoindolin-5-yl]hexanamide]"
